Assay results: PubChem BioAssay (NCI)
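Protocol summary: plate cells (96-well), add compound at 5 concentrations, incubate 48 h, interpolate endpoints linearly. GI50: concentration for 50% inhibition of growth. TGI is the concentration that stops growth completely.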

Key:
Test in all cases: inhibition of tumour cell growth, NCI panel, 48 h
SK-OV-3 ovarian = test system: SK-OV-3 ovarian
MALME-3M melanoma = test system: MALME-3M melanoma
IGROV1 ovarian = test system: IGROV1 ovarian
HOP-62 NSCLC = test system: HOP-62 NSCLC
HS 578T breast = test system: HS 578T breast
OVCAR-8 ovarian = test system: OVCAR-8 ovarian
HCC-2998 colon = test system: HCC-2998 colon
SF-539 CNS = test system: SF-539 CNS
MCF7 breast = test system: MCF7 breast
NCI/ADR-RES ovarian = test system: NCI/ADR-RES ovarian

## CC(C)[C@@H](C(=O)O[C@@H]1/C=C/C(=O)O[C@@H](C)CCC/C=C/[C@@H]2C[C@H](O)C[C@H]21)[N+](C)(C)C
SK-OV-3 ovarian
  GI50: > 100 µM
  TGI: > 100 µM
MALME-3M melanoma
  GI50: > 100 µM
  TGI: > 100 µM
IGROV1 ovarian
  GI50: > 100 µM
  TGI: > 100 µM
HOP-62 NSCLC
  GI50: > 100 µM
  TGI: > 100 µM
HS 578T breast
  GI50: > 100 µM
  TGI: > 100 µM
OVCAR-8 ovarian
  GI50: > 100 µM
  TGI: > 100 µM
HCC-2998 colon
  GI50: > 100 µM
  TGI: > 100 µM
SF-539 CNS
  GI50: > 100 µM
  TGI: > 100 µM
MCF7 breast
  GI50: > 100 µM
  TGI: > 100 µM
NCI/ADR-RES ovarian
  GI50: > 100 µM
  TGI: > 100 µM

## COc1cc2c(cc1OCCCCCCNC(=O)c1cc3ccccc3[nH]1)N=CC1CCCN1C2=O (stereo not given)
SK-OV-3 ovarian
  GI50: 64.8 µM
  TGI: > 100 µM
MALME-3M melanoma
  GI50: 20.5 µM
  TGI: > 100 µM
IGROV1 ovarian
  GI50: 17.4 µM
  TGI: > 100 µM
HOP-62 NSCLC
  GI50: 50.2 µM
  TGI: > 100 µM
HS 578T breast
  GI50: 30.6 µM
  TGI: > 100 µM
OVCAR-8 ovarian
  GI50: 30.5 µM
  TGI: > 100 µM
HCC-2998 colon
  GI50: 35.8 µM
  TGI: > 100 µM
SF-539 CNS
  GI50: 17 µM
  TGI: 33.4 µM
MCF7 breast
  GI50: 27.3 µM
  TGI: > 100 µM
NCI/ADR-RES ovarian
  GI50: 31.7 µM
  TGI: > 100 µM

## Cc1cc(C)cc(Nc2nccc(-c3c(-c4ccc(F)cc4)ncn3C3CCNCC3)n2)c1
SK-OV-3 ovarian
  GI50: 2.13 µM
  TGI: 5.09 µM
MALME-3M melanoma
  GI50: 1.61 µM
  TGI: 3.39 µM
IGROV1 ovarian
  GI50: 0.312 µM
  TGI: 1.67 µM
HOP-62 NSCLC
  GI50: 2.04 µM
  TGI: 3.95 µM
HS 578T breast
  GI50: 1.96 µM
  TGI: 4.36 µM
OVCAR-8 ovarian
  GI50: 1.66 µM
  TGI: 5.01 µM
HCC-2998 colon
  GI50: 1.28 µM
  TGI: 2.64 µM
SF-539 CNS
  GI50: 1.75 µM
  TGI: 3.25 µM
MCF7 breast
  GI50: 0.566 µM
  TGI: 2.09 µM
NCI/ADR-RES ovarian
  GI50: 1.79 µM
  TGI: 4.07 µM

## c1ccc(Cn2cc3c(c2)-c2oncc2CC3)cc1
SK-OV-3 ovarian
  GI50: 0.767 µM
  TGI: 26.5 µM
MALME-3M melanoma
  GI50: 17.9 µM
  TGI: > 67.8 µM
IGROV1 ovarian
  GI50: 1.27 µM
  TGI: > 100 µM
HOP-62 NSCLC
  GI50: 1.28 µM
  TGI: > 59.4 µM
HS 578T breast
  GI50: 0.887 µM
  TGI: 10.7 µM
OVCAR-8 ovarian
  GI50: 2.79 µM
  TGI: > 39.1 µM
HCC-2998 colon
  GI50: 1.25 µM
  TGI: 4.76 µM
SF-539 CNS
  GI50: 0.461 µM
  TGI: 2.9 µM
MCF7 breast
  GI50: 0.349 µM
  TGI: > 100 µM
NCI/ADR-RES ovarian
  GI50: 0.554 µM
  TGI: 7.22 µM

## O=C(Cc1ccccc1)Nc1nnc(CCSCCc2nnc(NC(=O)Cc3ccccc3)s2)s1
SK-OV-3 ovarian
  GI50: 18.7 µM
  TGI: 71.3 µM
MALME-3M melanoma
  GI50: 13.5 µM
  TGI: 48.9 µM
IGROV1 ovarian
  GI50: 25.9 µM
  TGI: > 100 µM
HOP-62 NSCLC
  GI50: 3.86 µM
  TGI: 19.6 µM
HS 578T breast
  GI50: 1.93 µM
  TGI: 79.9 µM
OVCAR-8 ovarian
  GI50: 6.12 µM
  TGI: > 100 µM
HCC-2998 colon
  GI50: 89.8 µM
  TGI: > 100 µM
SF-539 CNS
  GI50: 22.8 µM
  TGI: > 100 µM
MCF7 breast
  GI50: 32.6 µM
  TGI: > 100 µM
NCI/ADR-RES ovarian
  GI50: > 100 µM
  TGI: > 100 µM

## C[C@@H]1CN(Cc2ccc(/C=C/c3n[nH]c4ccc5nc(-c6cn[nH]c6C(F)(F)F)c6c(c5c34)CCCC6)cc2)C[C@H](C)O1
SK-OV-3 ovarian
  GI50: 3.64 µM
  TGI: 17.3 µM
MALME-3M melanoma
  GI50: 4.96 µM
  TGI: 20.9 µM
IGROV1 ovarian
  GI50: 1.33 µM
  TGI: 10.7 µM
HOP-62 NSCLC
  GI50: 4.6 µM
  TGI: 30.8 µM
HS 578T breast
  GI50: 2.05 µM
  TGI: 10.8 µM
OVCAR-8 ovarian
  GI50: 4.76 µM
  TGI: 23.1 µM
HCC-2998 colon
  GI50: 2.57 µM
  TGI: 10.5 µM
SF-539 CNS
  GI50: 2.97 µM
  TGI: 14.7 µM
MCF7 breast
  GI50: 1.53 µM
  TGI: 14.9 µM
NCI/ADR-RES ovarian
  GI50: 4.76 µM
  TGI: 19.9 µM

## O=C1OCC2=C1C(c1cccc(F)c1)c1cc3c(cc1N2CCO)OCCO3 (stereo not given)
SK-OV-3 ovarian
  GI50: 0.26 µM
  TGI: > 50 µM
MALME-3M melanoma
  GI50: 0.305 µM
  TGI: > 50 µM
IGROV1 ovarian
  GI50: 0.333 µM
  TGI: > 50 µM
HOP-62 NSCLC
  GI50: 0.31 µM
  TGI: > 50 µM
HS 578T breast
  GI50: 0.179 µM
  TGI: 7.16 µM
OVCAR-8 ovarian
  GI50: 0.244 µM
  TGI: > 50 µM
HCC-2998 colon
  GI50: 0.768 µM
  TGI: > 50 µM
SF-539 CNS
  GI50: 0.141 µM
  TGI: 0.831 µM
MCF7 breast
  GI50: 0.13 µM
  TGI: > 50 µM
NCI/ADR-RES ovarian
  GI50: 0.208 µM
  TGI: > 50 µM

## COc1ccc(N2CCN(CC(=O)N3CCN(c4nnc(-c5ccccc5)c(-c5ccccc5)n4)CC3)CC2)cc1
SK-OV-3 ovarian
  GI50: > 27.9 µM
  TGI: > 100 µM
MALME-3M melanoma
  GI50: 6.82 µM
  TGI: > 100 µM
IGROV1 ovarian
  GI50: 43.2 µM
  TGI: > 100 µM
HOP-62 NSCLC
  GI50: > 67.4 µM
  TGI: > 100 µM
HS 578T breast
  GI50: 9.46 µM
  TGI: > 100 µM
OVCAR-8 ovarian
  GI50: 35.8 µM
  TGI: > 100 µM
HCC-2998 colon
  GI50: 9.73 µM
  TGI: > 100 µM
SF-539 CNS
  GI50: 7.71 µM
  TGI: > 81.9 µM
MCF7 breast
  GI50: 4.44 µM
  TGI: 34.2 µM
NCI/ADR-RES ovarian
  GI50: 8.68 µM
  TGI: > 100 µM
